According to patent publication US20250019376A1, “CHROMANE AMIDINE MONOBACTAM ANTIBIOTICS” (priority 2021, published 2025):

Assays:
Details in all cases: lowest concentration inhibiting 95% of growth (OD600); with BLi relebactam 4 μg/mL; 22 hours, 35±2° C.
[1] = test system: Acinetobacter baumannii expressing TEM-1, AmpC, and Oxa-24/40 (CL6188); type: cell-based
Protocol: (§1) The concentrations of compounds required to inhibit the growth of various strains of bacteria were determined in an assay that assessed bacterial growth by measuring optical density at 600 nm (OD600). The bacterial strains tested included the clinical strains Escherichia co/i expressing NDM-1 (CLB30016), Klebsiella pneumoniae expressing KPC-1 (CL6569), Acinetobacter baumannii expressing TEM-1, AmpC, and Oxa-24/40 (CL6188) and Pseudomonas aeruginosa expressing AmpC (CL5701). All compounds were tested in the presence of a f3 lactamase inhibitor (BLi, Relebactam) in 384-well microplates.
(§2) The clinical strains were stored as frozen single use stocks, thawed and diluted into 1.1× cation-adjusted Mueller-Hinton 11 broth to achieve approximately 2×10^5 CFU/mL. Test compounds were dissolved in DMSO and diluted 1:50 in the assay, resulting in a final concentration range of 100 μM to 0.098 μM. On the day of the assay, 1 μL of test compound was added to the plate followed by 4 μL of 50 μg/mL BLi in MOPS buffer and 45 μL of diluted bacteria. Plates were centrifuged at 1000 rpm for 30 seconds, shaken at approximately 800 rpm for 1 minute, and incubated at 35±2° C. for 22 hours. The concentration of BLi used in the assay was 4 μg/mL. At the end of the incubation, absorbance at 600 nm was determined using a spectrophotometer. Inhibition was quantitated by identifying the lowest concentration of test compound that was required to inhibit […] of the growth of the bacteria.

[2] = test system: Klebsiella pneumoniae expressing KPC-1 (CL6569); experiment: Growth inhibitory concentration (OD600), K. pneumoniae CL6569; type: cell-based
Protocol: as §1, §2

[3] = test system: Pseudomonas aeruginosa expressing AmpC (CL5701); experiment: Growth inhibitory concentration (OD600), P. aeruginosa CL5701; type: cell-based
Protocol: as §1, §2

[4] = test system: Escherichia co/i expressing NDM-1 (CLB30016); experiment: Growth inhibitory concentration (OD600), E. coli CLB30016; type: cell-based, Escherichia coli
Protocol: as §1, §2

| Structure (SMILES) | AB_CL6188 MITC95 [1] | KP_CL6569 MITC95 [2] | PA_CL5701 MITC95 [3] | EC_CLB30016 MITC95 [4] |
| --- | --- | --- | --- | --- |
| COCC[C@]1(N)CC[C@H](NC(=N)c2ccc3c(c2)CC[C@H]([C@](C)(O/N=C(\C(=O)N[C@@H]2C(=O)N(OS(=O)(=O)O)C2(C)C)c2csc(N)n2)C(=O)O)O3)CC1 [Compound 64, (S)-2-((R)-6-(N-((1r,4R)-4-amino-4-(2-methoxyethyl)cyclohexyl)carbamimidoyl)chroman-2-yl)-2-((((Z)-1-(2-aminothiazol-4-yl)-2-(((S)-2,2-dimethyl-4-oxo-1-(sulfooxy)azetidin-3-yl)amino)-2-oxoethylidene)amino)oxy)propanoic acid] | 6.25 µM | 0.7813 µM | 3.125 µM |  |
| CC1(C)[C@H](NC(=O)/C(=N\O[C@](C)(C(=O)O)[C@H]2CCc3cc(C(=N)N[C@H]4C[C@@](N)(CCO)C4)ccc3O2)c2csc(N)n2)C(=O)N1OS(=O)(=O)O [Compound 87, (S)-2-((R)-6-(N-((1r,3R)-3-amino-3-(2-hydroxyethyl)cyclobutyl)carbamimidoyl)chroman-2-yl)-2-((((Z)-1-(2-aminothiazol-4-yl)-2-(((S)-2,2-dimethyl-4-oxo-1-(sulfooxy)azetidin-3-yl)amino)-2-oxoethylidene)amino)oxy)propanoic acid] | 4.688 µM | 0.3906 µM | 1.563 µM | 6.25 µM |
| CC1(C)[C@H](NC(=O)/C(=N\O[C@](C)(C(=O)O)[C@H]2CCc3cc(C(=N)NC4CCC(N)(CO)CC4)ccc3O2)c2csc(N)n2)C(=O)N1OS(=O)(=O)O (stereo partly drawn) [Compound 70, (S)-2-((R)-6-(N-((1s,4S)-4-amino-4-(hydroxymethyl)cyclohexyl)carbamimidoyl)chroman-2-yl)-2-((((Z)-1-(2-aminothiazol-4-yl)-2-(((S)-2,2-dimethyl-4-oxo-1-(sulfooxy)azetidin-3-yl)amino)-2-oxoethylidene)amino)oxy)propanoic acid] | 4.688 µM | 0.293 µM |  |  |
| CC1(C)[C@H](NC(=O)/C(=N\O[C@](C)(C(=O)O)[C@H]2CCc3cc(C(=N)N[C@H]4C[C@@](N)(C[C@@H](O)CO)C4)ccc3O2)c2csc(N)n2)C(=O)N1OS(=O)(=O)O [Compound 95, (S)-2-((R)-6-(N-((1R,3R)-3-amino-3-((R)-2,3-dihydroxypropyl)cyclobutyl)carbamimidoyl)chroman-2-yl)-2-((((Z)-1-(2-aminothiazol-4-yl)-2-(((S)-2,2-dimethyl-4-oxo-1-(sulfooxy)azetidin-3-yl)amino)-2-oxoethylidene)amino)oxy)propanoic acid] | 6.25 µM | 0.3906 µM |  | 6.25 µM |
| CC1(C)[C@H](NC(=O)/C(=N\O[C@](C)(C(=O)O)[C@H]2CCc3cc(C(=N)NC4CC(N)(C[C@H](O)CO)C4)ccc3O2)c2csc(N)n2)C(=O)N1OS(=O)(=O)O (stereo partly drawn) [Compound 94, (S)-2-((R)-6-(N-((1S,3R)-3-amino-3-((S)-2,3-dihydroxypropyl)cyclobutyl)carbamimidoyl)chroman-2-yl)-2-((((Z)-1-(2-aminothiazol-4-yl)-2-(((S)-2,2-dimethyl-4-oxo-1-(sulfooxy)azetidin-3-yl)amino)-2-oxoethylidene)amino)oxy)propanoic acid] | 6.25 µM | 0.3906 µM |  | 3.125 µM |
| CC1(C)[C@H](NC(=O)/C(=N\O[C@](C)(C(=O)O)[C@H]2CCc3cc(C(=N)NC4CC5(CC(N)C5)C4)ccc3O2)c2csc(N)n2)C(=O)N1OS(=O)(=O)O (stereo partly drawn) [Compound 61, (S)-2-((R)-6-(N-((2R,4r,6R)-6-aminospiro[3.3]heptan-2-yl)carbamimidoyl)chroman-2-yl)-2-((((Z)-1-(2-aminothiazol-4-yl)-2-(((S)-2,2-dimethyl-4-oxo-1-(sulfooxy)azetidin-3-yl)amino)-2-oxoethylidene)amino)oxy)propanoic acid] | 6.25 µM | 0.3906 µM | 1.563 µM |  |
| CC1(C)[C@H](NC(=O)/C(=N\O[C@](C)(C(=O)O)[C@H]2CCc3cc(C(=N)N[C@]4(C)CC[C@](N)(CO)CC4)ccc3O2)c2csc(N)n2)C(=O)N1OS(=O)(=O)O [Compound 135, (S)-2-((R)-6-(N-((1r,4R)-4-amino-4-(hydroxymethyl)-1-methylcyclohexyl)-carbamimidoyl)chroman-2-yl)-2-((((Z)-1-(2-aminothiazol-4-yl)-2-(((S)-2,2-dimethyl-4-oxo-1-(sulfooxy)azetidin-3-yl)amino)-2-oxoethylidene)amino)oxy)propanoic acid] | 12.5 µM | 0.7813 µM | 3.125 µM |  |
| CC1(C)[C@H](NC(=O)/C(=N\O[C@](C)(C(=O)O)[C@H]2CCc3cc(C(=N)N[C@H]4C[C@@H](N)C4)ccc3O2)c2csc(N)n2)C(=O)N1OS(=O)(=O)O [Compound 7, (S)-2-((R)-6-(N-((1 s,3 S)-3-aminocyclobutyl)carbamimidoyl)chroman-2-yl)-2-((((Z)-1-(2-aminothiazol-4-yl)-2-(((S)-2,2-dimenthyl-4-oxo-1-(sulfooxy)azetidin-3-yl)amino)-2-oxoethylidene)amino)oxy)propanoic acid] | 5.729 µM | 0.3906 µM |  | 4.688 µM |
| COCc1c(C(=N)N[C@H]2C[C@@H](N)C2)ccc2c1CC[C@H]([C@](C)(O/N=C(\C(=O)N[C@@H]1C(=O)N(OS(=O)(=O)O)C1(C)C)c1csc(N)n1)C(=O)O)O2 [Compound 124, (S)-2-((R)-6-(N-((1s,3S)-3-aminocyclobutyl)carbamimidoyl)-5-(methoxymethyl)chroman-2-yl)-2-((((Z)-1-(2-aminothiazol-4-yl)-2-(((S)-2,2-dimethyl-4-oxo-1-(sulfooxy)azetidin-3-yl)amino)-2-oxoethylidene)amino)oxy)propanoic acid] | 12.5 µM | 1.563 µM |  | 50 µM |
| CC1(C)[C@H](NC(=O)/C(=N\O[C@](C)(C(=O)O)[C@H]2CCc3cc(C(=N)N[C@H]4C[C@H]5CC[C@@H](C4)N5)ccc3O2)c2csc(N)n2)C(=O)N1OS(=O)(=O)O [Compound 136, (S)-2-((R)-6-(N-((1R,3r,5S)-8-azabicyclo[3.2.1]octan-3-yl)carbamimidoyl)chroman-2-yl)-2-((((Z)-1-(2-aminothiazol-4-yl)-2-(((S)-2,2-dimethyl-4-oxo-1-(sulfooxy)azetidin-3-yl)amino)-2-oxoethylidene)amino)oxy)propanoic acid] | 6.25 µM | 0.7813 µM | 1.563 µM |  |
| COC[C@]1(NC(=N)c2ccc3c(c2)CC[C@H]([C@](C)(O/N=C(\C(=O)N[C@@H]2C(=O)N(OS(=O)(=O)O)C2(C)C)c2csc(N)n2)C(=O)O)O3)CC[C@@H](N)CC1 [Compound 126, (S)-2-((R)-6-(N-((1s,4S)-4-amino-1-(methoxymethyl)cyclohexyl)carbamimidoyl)chroman-2-yl)-2-((((Z)-1-(2-aminothiazol-4-yl)-2-(((S)-2,2-dimethyl-4-oxo-1-(sulfooxy)azetidin-3-yl)amino)-2-oxoethylidene)amino)oxy)propanoic acid] | 12.5 µM | 1.563 µM |  | 25 µM |
| COC[C@]1(NC(=N)c2ccc3c(c2)CC[C@H]([C@](C)(O/N=C(\C(=O)N[C@@H]2C(=O)N(OS(=O)(=O)O)C2(C)C)c2csc(N)n2)C(=O)O)O3)CC[C@H](N)CC1 [Compound 127, (S)-2-((R)-6-(N-((1r,4R)-4-amino-1-(methoxymethyl)cyclohexyl)carbamimidoyl)chroman-2-yl)-2-((((Z)-1-(2-aminothiazol-4-yl)-2-(((S)-2,2-dimethyl-4-oxo-1-(sulfooxy)azetidin-3-yl)amino)-2-oxoethylidene)amino)oxy)propanoic acid] | 12.5 µM | 0.7813 µM |  | 6.25 µM |
| CC1(C)[C@H](NC(=O)/C(=N\O[C@](C)(C(=O)O)[C@H]2CCc3cc(C(=N)N[C@H]4C[C@@]5(CCNC5)C4)ccc3O2)c2csc(N)n2)C(=O)N1OS(=O)(=O)O [Compound 23, (S)-2-((R)-6-(N-((2s,4R)-6-azaspiro[3.4]octan-2-yl)carbamimidoyl)chroman-2-yl)-2-((((Z)-1-(2-aminothiazol-4-yl)-2-(((S)-2,2-dimethyl-4-oxo-1-(sulfooxy)azetidin-3-yl)amino)-2-oxoethylidene)amino)oxy)propanoic acid] | 6.25 µM | 0.7813 µM |  | 6.25 µM |
